Measured values: patent publication US20150328199A1, “METHODS AND COMPOSITIONS USING 4-AMINO-2-(2,6-DIOXO-PIPERIDINE-3-YL)-ISOINDOLINE-1,3-DIONE FOR TREATMENT OF CANCERS” (Celgene Corporation, priority 2014, published 2015)

Assays:
[1] = Comparative population pharmacokinetic analysis of pomalidomide with thalidomide and lenalidomide (two-compartment PPK model); type: in vivo, human; settings: for drug exposure in central (plasma) compartment, patients versus healthy subjects: FIG. 7A, 8A; for drug exposure in peripheral compartment, patients versus healthy subjects: FIG. 7B, 8B; for relation of disease stage and peripheral compartment exposure in patients: FIG. 9
From the text: Population pharmacokinetic analysis of pomalidomide was compared with that of 2-(2,6-dioxopiperidin-3-yl)-1H-isoindole-1,3(2H)-dione (“thalidomide”) and 3-(4-amino-1-oxo-1,3-dihydro-2H-isoindo1-2-yl)piperidine-2,6-dione (“lenalidomide” also known as “Revlimid”), on available data from healthy subjects and MM patients. The results of analyses are provided in Table 7 and FIGS. 3A to FIGS. 9. FIGS. 3A and 3B provide concentration vs. time profiles for thalidomide, lenalidomide and pomalidomide.
The data of thalidomide and revlimid are based on a population pharmacokinetic analysis performed on data from studies using a two-compartment PPK model.

[2] = Clinical pharmacokinetics of pomalidomide after single oral dose (non-compartmental analysis); type: in vivo, human
Description: Pomalidomide is absorbed with a maximum plasma concentration (Cmax) at a median time (tmax) between 2 hours and 3 hours after clinically relevant doses. Pomalidomide is >73% absorbed following administration of a single oral dose. […] Based on non-compartmental analysis, mean (percent coefficient of variation [%CV]) apparent volume of distribution (Vz/F) of pomalidomide after a single dose ranges from 74 L (20%) to 138 L (30%) across a dose range of 1 mg to 10 mg. Pomalidomide is extensively metabolized via multiple metabolic pathways and is eliminated in human via multiple pathways.

drug exposure in central (plasma) compartment, patients versus healthy subjects [1]	drug exposure in peripheral compartment, patients versus healthy subjects [1]	CL/F ([1]; HNV (healthy subjects))	KA ([1]; HNV (healthy subjects))	Q/CL ([1]; HNV (healthy subjects))	Q/F ([1]; HNV (healthy subjects))	Tlag ([1]; HNV (healthy subjects))	CL/F ([1]; Patients (MM))	Q/CL ([1]; Patients (MM))	Q/F ([1]; Patients (MM))	Tlag ([1]; Patients (MM))	Relative Potential of Deep Penetration ([1]; HNV (healthy subjects))	V2/F ([1]; HNV (healthy subjects))	V3/F ([1]; HNV (healthy subjects))	V3/V2 ([1]; HNV (healthy subjects))	Compound	other results
comparable	higher drug exposure	8.52 L/h	1.25 h⁻¹	11.8%	1.01 L/h	0.385 h	7.78 L/h	48%	3.75 L/h	0.206 h					Nc1cccc2c1C(=O)N(C1CCC(=O)NC1=O)C2=O (stereo not drawn) [Pomalidomide, 4-amino-2-(2,6-dioxo-piperidine-3-yl)-isoindoline-1,3-dione]	relation of disease stage and peripheral compartment exposure in patients [1]: higher disease stage were correlated with higher peripheral compartment pomalidomide exposure; relation of disease stage and peripheral compartment exposure in patients ([1]; listed as 4-amino-2-(2,6-dioxo-piperidine-3-yl)-isoindoline-1,3-dione): higher disease stage was correlated with higher peripheral compartment; KA ([1]; Patients (MM)): 1.25 h⁻¹; Tmax ([2]; human, plasma, oral, after clinically relevant doses, read-out: median time (tmax) of maximum plasma concentration): 2 to 3 h; half-life ([2]; human, plasma, oral, read-out: geometric mean terminal half-life (t1/2) (converted)): ~7.5 h; Cmax versus dose ([2]; single dose): less than dose proportional; systemic exposure (AUC) versus dose ([2]; single dose): approximately dose-proportional; absorbed ([2]; single oral dose): > 73%
comparable	comparable	16.8 L/h	5.41 h⁻¹	12.7%	2.14 L/h	0.25 h	10.2 L/h	11.1%	1.13 L/h	0.235 h	2.1%	56.5 L	9.49 L	16.8%	Nc1cccc2c1CN(C1CCC(=O)NC1=O)C2=O (stereo not drawn) [Revlimid, 3-(4-amino-1-oxo-1,3-dihydro-2H-isoindo1-2-yl)piperidine-2,6-dione]	Relative Potential of Deep Penetration ([1]; Patients (MM)): 1.9%; V2/F ([1]; Patients (MM)): 48.3 L; V3/F ([1]; Patients (MM)): 8.36 L; V3/V2 ([1]; Patients (MM)): 17.3%
comparable	comparable	9.66 L/h	0.536 h⁻¹	4%	0.355 L/h						0.6%	83.3 L	13.5 L	16%	O=C1CCC(N2C(=O)c3ccccc3C2=O)C(=O)N1 (stereo not drawn) [Thalidomide, 2-(2,6-dioxopiperidin-3-yl)-1H-isoindole-1,3(2H)-dione]	
